The values that follow come from patent US4479945A, “Inter-m-phenylene-prostacyclin analogues and use thereof in inhibiting blood platelet aggregation” (Chinoin Gyogyszer Es Vegyeszeti Termekek Gyara R.T., priority 1981, dated 1984).

The test system of one assay is blood pressure. In words: Antihypertensive activity (blood pressure reduction, ED25) on narcotized rats. It is filed as in vivo, rat. To be noted: for hypotensive / antihypertensive side effect (in words): compared with PGI2 or compounds of the state of art; for relative anti-hypertensive efficiency ED25 PGI2 /ED25 test-compound: molar dose for 25 mmHg blood pressure reduction, narcotized rats, sodium salts. Here is the method: The antihypertensive activity was determined on narcotized rats. From the data of the blood pressure tests the molar dose /ED25 / inducing 25 mmHg /3.33 kPa/ blood pressure reduction was calculated.

Assay [1] deals with thrombocyte aggregation. In words: Thrombocyte (blood platelet) aggregation, Payton aggregometer, induced with 2 μM ADP, plasma enriched in thrombocytes (PRP). It is filed as cell-based, human. To be noted: for antiaggregatory activity (in words): compared with PGI2 or compounds of the state of art. The method, then: The thrombocyte aggregation was measured with a Payton type aggregometer of two channels in 0.5 ml. end volume. […] The cubital venal blood was mixed with a 3.8% Na-citrate solution at a ratio of 9:1 and in order to obtain a plasma enriched in thrombocytes (PRP) blood was centrifuged for 5 minutes at 230 g, while plasma poor in thrombocytes was obtained after 10 minutes of centrifuging. The blood platelet number of the plasma was adjusted to […]. The tests were performed within 1 hour after the blood taking. The prostacycline sensitivity of each plasma was controlled before measuring the test substances. IC50 value of prostacycline on plasma enriched in thrombocytes: 0.6-1.0 ng/ml.
Thrombocyte aggregation was induced with 2 μM ADP. The test compounds were dissolved in 0.1M tris-HCl buffer of pH=7.8 and the temperature was maintained at 0° to 4° C.
The compounds were tested repeatedly after some time and were kept in solution at 0°-4° C. IC50 values were calculated graphically.

Assay [2] has as its system coronary arteries of the heart; peripheral circulation vessels. To be noted: literature; cited from earlier work.
The test system of assay [3] is thrombocyte aggregation. The following applies: literature; cited from earlier work.

≈ marks a conversion by molar mass, not a printed value. Entries after “also recorded” stand apart in the source; their conditions may differ.

For `CCCCCCCC(O)C#CC1C(O)CC2OC(=Cc3cccc(C(=O)O)c3)CC21` (centres unmarked) [compound "B", 5(Z)-2,3,4-trinor-inter-m-phenylene-13,14-didehydro-20-ethyl-PGI2], the “hypotensive / antihypertensive side effect (in words)” value in the assay on blood pressure was “less side effects”. For the same compound, the “antihypertensive activity as part of the activity of PGI2” value in the assay with blood pressure (related to PGI2) was “about 2/100”. Moreover, the “antiaggregatory activity (in words)” value in the assay with thrombocyte aggregation [1] was “better activity; also recorded: substantially the same as that of PGI2”.

Turning to `CCCCCC(O)C=CC1C(O)CC2OC(=Cc3cccc(C(=O)O)c3)CC21` (centres unmarked) [45842/A, 5(Z)-2,3,4-trinor-1,5-inter-m-phenylene-PGI2], in the assay with blood pressure (related to PGI2), the “relative anti-hypertensive efficiency ED25 PGI2 /ED25 test-compound” value is given as 1/10.

On to `CCCCCCC(O)C#CC1C(O)CC2OC(=Cc3cccc(C(=O)O)c3)CC21` (centres unmarked) [compound "A", 5(Z)-2,3,4-trinor-1,5-inter-m-phenylene-13,14-didehydro-20-methyl-PGI2], for which the “hypotensive / antihypertensive side effect (in words)” value with blood pressure is recorded as “less side effects”. Moreover, the “antiaggregatory activity (in words)” value in the assay on thrombocyte aggregation [1] is “better activity”.

Consider `CCCCC[C@H](O)/C=C/[C@@H]1[C@H]2C/C(=C/CCCC(=O)O)O[C@H]2C[C@H]1O` [PGI2], for which, in assay [2], the “further physiological activities (in words)” value is “relaxation of the coronary arteries of the heart and dilatation of the peripheral circulation vessels”. Moreover, the “relative anti-hypertensive efficiency ED25 PGI2 /ED25 test-compound” value in the assay on blood pressure (related to PGI2) is given as 1/1. The “antiaggregatory and desaggregatory activity (in words)” value in the assay with thrombocyte aggregation [3] is “most active antiaggregatory and desaggregatory agent”. Also, the IC50 (usually the point on the concentration scale where inhibition reaches its midpoint) in the assay on thrombocyte aggregation [1] (Homo sapiens, Platelet, control of prostacycline sensitivity of each plasma) was in the range of 0.6 to 1 ng/mL (≈ 1.7 to 2.84 nM). Moreover, the “relative anti-aggregatory efficiency IC50 PGI2 /IC50 test-compound” value in the assay on thrombocyte aggregation [1] (related to PGI2, 2 μM ADP, human PRP, sodium salts) is listed as 1/1.
